Patent US11596623B2, “Methods for treating virus infection or proliferation” (HOWARD UNIVERSITY, priority 2018, dated 2023)

Target: T1, RACK1A Y248 phosphorylation (Arabidopsis thaliana, UniProt O24456)
T1 construct: from tissue; host or cells: Arabidopsis seedlings or plants (wild type); lysates
Assay: ABA-induced RACK1A Y248 phosphorylation in seedlings, western blot
Format: in vivo
Settings: 10 μM ABA, 12 hours, one-week old seedlings
Method: One-week old Arabidopsis seedlings were treated with 10 μM of stress hormone Abscisic acid (ABA) in the presence/absence of the inhibitor compounds for 12 hours in a growth chamber (overnight) at 22° C. Lysates were probed with an antibody raised to detect phosphorylated Y248 residue of RACK1A protein in Arabidopsis. Lysates from rack1a-1 knock-out mutant seedlings grown and treated similarly as the wild-type seedlings were used as a negative control. The compounds were dissolved in DMSO (D) and ABA was dissolved in methanol (M).
Proteins were separated by SDS-PAGE (25 μg loaded in each lane), transferred to nitrocellulose membranes (Amersham Inc., Piscataway, N.J., USA), and blocked with 5% nonfat milk for 60 min at room temperature. Membranes were incubated overnight at 4° C. with primary antibody, followed by incubation with a horseradish peroxidase-coupled secondary antibody and detection with enhanced chemiluminescence (Pierce, Rockford, Ill., USA), according to standard methods. Membranes were stripped with stripping buffer (100 mM 2-mercaptoethanol, 2% SDS, 62.5 mM Tris-HCl, pH 6.8), washed with PBS-0.1% Tween-20, and used to detect additional proteins. For Arabidopsis lysates one-week old seedlings were treated with 10 uM of ABA in the presence/absence of the inhibitor compounds for 12 hours in a growth chamber (overnight) at 22° C. mostly in the dark. […]

T1 sequence (O24456 whole entry): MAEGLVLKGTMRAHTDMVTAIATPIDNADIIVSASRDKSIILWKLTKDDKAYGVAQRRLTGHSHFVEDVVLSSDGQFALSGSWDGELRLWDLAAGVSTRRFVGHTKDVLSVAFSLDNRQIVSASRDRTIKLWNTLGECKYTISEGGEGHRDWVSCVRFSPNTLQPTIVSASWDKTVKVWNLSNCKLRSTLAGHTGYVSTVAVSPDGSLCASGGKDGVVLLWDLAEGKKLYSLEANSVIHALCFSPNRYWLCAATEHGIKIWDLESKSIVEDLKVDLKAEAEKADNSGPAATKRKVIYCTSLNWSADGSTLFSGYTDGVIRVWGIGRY

Nn1c(S)nnc1-c1cc(Cl)cc(Cl)c1 [SD29-14]
ABA-induced RACK1A Y248 phosphorylation: prevented the ABA-induced Y248 phosphorylation

Nn1c(S)nnc1-c1ccc(F)cc1 [SD-29]
ABA-induced RACK1A Y248 phosphorylation: prevented the ABA-induced Y248 phosphorylation
